Data set [1] deals with CHK-1 kinase (Homo sapiens (Human), UniProt O14757). The data set is described as follows: CHK-1 % inhibition kinase assay (TR-FRET). The format is biochemical. As to conditions: ATP 15 μM; for inhibition at 0.03 µM / inhibition at 0.3 µM: CHK1 enzyme; for inhibition at 0.03 µM: compound 30 nM; for inhibition at 0.3 µM: compound 300 nM; for IC50: TR-FRET, read-out: CHK1 IC50. How it is done:
Inhibition of CHK-1 kinase or percent inhibition at defined concentrations was determined by TR-FRET assay. Kinase reactions were performed in a 20 μL volume in low-volume 384-well plates (Cat #Corning 4511). The concentration of substrate Fluorescein-CREBtide was maintained at 0.2 μM in the assay, and the kinase reaction buffer consisted of 50 mM HEPES pH 7.5, 0.01% BRIJ-35, 10 mM MgCl2, 1 mM EGTA. Serially diluted compounds (3-fold) in DMSO (0.5% in final reaction) were incubated with cocktail of CHK-1 kinase (6 nM; Cat #PR3959B, ThermoFisher), Fluorescein-CREBtide (0.2 μM; Cat #PV3508, ThermoFisher), ATP (15 μM; Cat #A1852, Sigma), and kinase reaction buffer. After 1 hour kinase reactions at room temperature, 10 μL of Detection mix (8 nM LanthaScreen® Tb-CREB [pSer133] antibody, Cat #PV3542, ThermoFisher with 20 mM EDTA in TR-FRET Buffer, Cat #PV3574, ThermoFisher) was added, and the plate was read with a plate reader (Synergy™ NEO; Biotek) for TR-FRET.
The resulting TR-FRET emission ratio was used to calculate the percent inhibition by normalizing to the control using the following formula: […]
On the technique in general: TR-FRET usually uses a lanthanide donor and a delayed reading to cut background.

A short description of data set [2]: Microsomal stability assay, human liver microsome. The format is in vitro ADME. The following applies: liver microsomes, pH 7.4, 0.2 mg/mL, 1 μM compound, 37° C., read-out: Clint HLM. As for the experimental part:
(§1) Incubation mixture contained 0.2 mg/mL microsomes, 1 mmol NADPH, and test compound at 1 μM in 100 mmol potassium phosphate buffer at pH 7.4. The mixtures were incubated at 37° C. for 5, 15, and 30 minutes. Aliquots of the mixtures were taken at 0, 5, 15 and 30 minutes and quenched with chilled Acetonitrile:Methanol (50:50) containing internal standard. Following completion of incubation, samples were centrifuged at 4,000 rpm at 4° C. The supernatant was analyzed by LC-MS/MS and half-life, as well as intrinsic clearance (Clint), were calculated.
On the technique in general: Microsomes from liver hold many membrane-bound enzymes, among them those of drug oxidation.

Data set [3] in a line: Microsomal stability assay, mouse liver microsome. The format is in vitro ADME. The following applies: liver microsomes, pH 7.4, 0.2 mg/mL, 1 μM compound, 37° C., read-out: Clint MLM. As for the experimental part:
as §1

Data set [4] can be described thus: Microsomal stability assay, rat liver microsome. The data set is classed as in vitro ADME. The following applies: liver microsomes, pH 7.4, 0.2 mg/mL, 1 μM compound, 37° C., read-out: Clint RLM. How it is done:
as §1

Data set [5] in a line: Caco-2 cell permeability assay. The following applies: human; for Papp A→B at 120 min: Caco-2, A to B; for Papp A→B at 120 min / Papp B→A at 120 min: pH 7.4; for Papp B→A at 120 min: Caco-2, B to A. The format is in vitro ADME. How it is done: After thawed, Caco-2 cells were cultured in the medium containing 10% FBS, 1% Sodium pyruvate, 1% NEAA and 1% Glutamax MEM, then were placed in the incubator containing 5% CO2 at 37° C., and the culture medium then was replaced every 2-3 days. When the confluence reached 80%, the subculture was carried out. Add 5 mL of 1 M HEPES to 500 mL of HBSS for preparing transport buffer (pH 7.4), and the final concentration of HEPES was 10 mM. Before the transport study (day 21-28), take out the culture medium from the cell culture plate, wash it twice with preheated HBSS buffer (10 mM HEPES, pH 7.4), and add 100 μL HBSS buffer to each well. After incubation at 37° C. for 30 minutes, Teer value was measured by cell resistance meter (Millicell-ERS2) to confirm the integrity of monolayer cells. Discard the HBSS buffer, transfer the upper plate containing the cell monolayer membrane to the corresponding receiving plate, add the test compound solution or buffer to the top (side A) and the bottom (side B) respectively, put the cell plate into the corresponding 96 well receiving plate, and add the prepared positive control compound, test compound or HBSS buffer (with 0.5% BSA) on side A or side B of the filter membrane of Transwell cell plate according to the following groups, incubate cell plates at 37° C. When incubated for 5 minutes, 8 μL sample solutions were taken from the side A and the side B respectively and add 72 μL transport buffer (diluted 10 times) as TO of the initial solution. After 120 minutes of incubation, collect the samples at both ends of the filter membrane of Transwell cell plate; take 80 μL sample solution from the receiving side as the sample on the receiving side after transport, meanwhile take 8 μL sample solution from the administration side and then mix with 72 μL transport buffer, the well-mixed solution was used as the sample on the administration side after transport. After collecting bilateral samples, tap gently, discard the remaining solution in the cell plate, wash the cell plate with transport buffer; and to each well, add 100 μL acetonitrile solution containing internal standard working solution to lyse cells; After mixing well by blowing up and down, take 80 μL per well cell lysate as the sample after cell lysis. After collecting all samples in the transport system (TO sample from receiving side and administration side), 160 μL IS/ACN solution was added to each well, 80 μL IS/ACN solution was added to the collected lysate sample, and then seal it. Shake for 10 minutes and store the sample plate at −20° C. before LC-MS/MS analysis.
The following equation are used to calculate the apparent permeability coefficient (Papp, cm/s), the efflux ratio (ER), the solution recovery (% Recovery) and the total recovery (% Total Recovery).
Where, • Vreceiver is the volume of solution at the receiving end (0.25 mL for A to B and 0.1 mL for B to A); • Vdonor is the volume of the solution at the administration end (0.1 mL for A to B and 0.25 mL for B to A); • Vlysate is the volume of cell lysate (0.1 mL); • Area is the relative surface area of the cell monolayer (0.0804 cm^2); • Time is the incubation time (7200 s); • [drug]receiver is the drug concentration (nM) at the receiving end or the control compound; • [drug]donor is the concentration of drug or control compound at the administration end (nM); • [drug]lysate is the concentration of drug or control compound in cell lysate (nM); • [drug]initial is the initial concentration of the test or control compound (nM).
On the technique in general: Caco-2 cells form a polarised layer with tight junctions and transporters.

A short description of data set [6]: Kinetic solubility assay (nephelometry). The following applies: PBS, 37 °C, pH 7.4, aqueous buffer, kinetic from dmso stock.
Experimental: (§2) Test articles were serially diluted in DMSO from concentration range of 10 mM to 0.078 mM in 96 well v-bottom dilution plate (#3363, Corning). 1 μL of test article from each well was transferred to 96 well flat bottom clear plates (#655101, Greiner) containing 99 μL of PBS at pH-7.4, which makes the test drug final concentration range from 100 μM to 0.78 μM. Samples were incubated for 1 hour at 37° C. followed by measurement of light scattering at 625 nm with a laser based micro plate Nephelometer (Nephlostar Plus, BMG Labtech). Solubility concentration (μM) was then calculated by segmental regression with Neplometer as Readout.
Data set [7] is described as follows: physchem. As to conditions: 37 °C, pH 7.4, aqueous buffer, kinetic from dmso stock.
Experimental: as §2
[8] abbreviates: Caco-2, pH 7.4, Caco-2, solution recovery, A to B, read-out: Recovery % A to B.
Where [9] appears, read: Caco-2, pH 7.4, Caco-2, solution recovery, B to A, read-out: Recovery % B to A.
[10] abbreviates: Caco-2, pH 7.4, Caco-2, total recovery with cell lysate, A to B, read-out: Recovery % with Cell Lysate A to B.
Where [11] appears, read: Caco-2, pH 7.4, Caco-2, total recovery with cell lysate, B to A, read-out: Recovery % with Cell Lysate B to A.

The source of these data is patent US20250346587A1, “NITROGEN-CONTAINING FIVE-MEMBERED HETEROCYCLIC DERIVATIVES AS CHECKPOINT KINASE 1 INHIBITOR AND USES THEREOF” (SPEROGENIX THERAPEUTICS LIMITED, priority 2022, published 2025).

Each structure is given as a SMILES string. Values after ≈ are worked out from the molar mass of the structure shown. Where two headings read alike, the source gives them in different places. A value given as a limit tells only on which side of the number the result lay.

Sequence of CHK-1 kinase (O14757 whole entry): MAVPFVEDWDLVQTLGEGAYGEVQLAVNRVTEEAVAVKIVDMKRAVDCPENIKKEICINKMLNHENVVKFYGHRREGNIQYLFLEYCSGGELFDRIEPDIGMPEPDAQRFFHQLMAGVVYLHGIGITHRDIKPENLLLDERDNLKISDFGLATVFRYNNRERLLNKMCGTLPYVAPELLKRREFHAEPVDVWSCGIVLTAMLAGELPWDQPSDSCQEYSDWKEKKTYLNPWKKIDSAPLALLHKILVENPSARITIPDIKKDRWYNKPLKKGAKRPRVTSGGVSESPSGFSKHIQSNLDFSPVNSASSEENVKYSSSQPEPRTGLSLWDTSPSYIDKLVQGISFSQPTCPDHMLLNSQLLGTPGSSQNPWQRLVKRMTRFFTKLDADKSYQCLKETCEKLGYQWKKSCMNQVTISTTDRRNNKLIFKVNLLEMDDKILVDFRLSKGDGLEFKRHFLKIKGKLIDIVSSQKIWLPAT

As usually defined, the inhibition is how much of the control response was suppressed. For orientation: IC50 means the concentration at which inhibition is half-maximal. In general, Papp A→B refers to how fast a substance crosses the layer from the apical side. Lower therefore signals poor permeation. Broadly, the Papp B→A is how fast a substance crosses the layer from the basolateral side. In general, solubility (kinetic) refers to the concentration staying in solution when a stock, usually in DMSO, is diluted into the medium. Regarding `N#Cc1cnc(Nc2cc(-c3ccccc3OCC3CNCCO3)on2)cn1` (centres unmarked) [Compound 1.1, 5-(5-(2-(morpholin-2-ylmethoxy)phenyl)isoxazol-3-ylamino) pyrazine-2-carbonitrile], in data set [1], the inhibition at 0.03 µM came to 49%. Besides, in data set [1], the inhibition at 0.3 µM came to 88%. Besides, in data set [1], the IC50 stood at 0.0677 µM. Besides, the microsomal CLint at 1 μM in data set [2] came out at 32 µL/min/mg; in data set [3], 100 µL/min/mg; in data set [4], 58 µL/min/mg. Further, the recovery at 120 min in data set [5] (setting [8]) was 69%; in data set [5] (setting [9]) it was 102%; in data set [5] (setting [10]), 94.1%; in data set [5] (setting [11]) it was 107%. Besides, in data set [5], the apparent permeability from apical to basolateral (Papp A→B) at 120 min was 7 ×10⁻⁶ cm/s. Further, the Papp B→A at 120 min in data set [5] was determined as 8.7 ×10⁻⁶ cm/s. The same compound returned a solubility (kinetic) at 1 h in data set [6] of 44 µM (≈ 16.6 µg/mL).

With `N#Cc1cnc(Nc2cc(-c3ccccc3OCC3CCNCC3)on2)cn1` [Compound 1.2, 5-(5-(2-(piperidin-4-ylmethoxy)phenyl)isoxazol-3-ylamino) pyrazine-2-carbonitrile], in data set [1], the inhibition at 0.03 µM is 36%. In addition, the inhibition at 0.3 µM in data set [1] stood at 85%. In addition, the half-maximal inhibitory concentration (IC50) in data set [1] came to 0.0133 µM. Moreover, the microsomal CLint at 1 μM in data set [2] came out at 45 µL/min/mg; in data set [3], 39 µL/min/mg; in data set [4], 27 µL/min/mg. In addition, the recovery at 120 min in data set [5] (setting [8]) came to 67.7%; in data set [5] (setting [9]) it was 103%; in data set [5] (setting [10]) it was 93.9%; in data set [5] (setting [11]) it was 108%. Also, the Papp A→B at 120 min in data set [5] was 5.35 ×10⁻⁶ cm/s. In data set [5], this compound came in with a Papp B→A at 120 min of 9.75 ×10⁻⁶ cm/s. This compound showed a kinetic solubility at 1 h in data set [6] of 45.6 µM (≈ 17.2 µg/mL).

Consider `N#Cc1cnc(Nc2cc(-c3ccccc3OCC3CCCNC3)on2)cn1` (centres unmarked) [Compound 1.3, 5-(5-(2-(piperidin-3-ylmethoxy)phenyl)isoxazol-3-ylamino) pyrazine-2-carbonitrile], for which the inhibition at 0.03 µM in data set [1] is 50%. Further, in data set [1], the inhibition at 0.3 µM came to 97%. Further, in data set [1], the concentration for half-maximal inhibition (IC50) was found to be 0.00777 µM. Moreover, the microsomal CLint at 1 μM in data set [2] came to 47 µL/min/mg; in data set [3], 68 µL/min/mg; in data set [4] it was 61 µL/min/mg. Besides, the recovery at 120 min amounted to 54.7% in data set [5] (setting [8]), 103% in data set [5] (setting [9]), 89% in data set [5] (setting [10]) and 107% in data set [5] (setting [11]). Also, the Papp A→B at 120 min in data set [5] is 3.4 ×10⁻⁶ cm/s. Besides, the Papp B→A at 120 min in data set [5] came out at 11.2 ×10⁻⁶ cm/s. This compound also displayed a kinetic solubility at 1 h in data set [6] of 100 µM (≈ 37.6 µg/mL).

In the case of `COc1cc(C2=CCNCC2)ccc1-c1cc(Nc2cnc(C#N)cn2)on1` [Compound 1.9, 5-(3-(2-methoxy-4-(1,2,3,6-tetrahydropyridin-4-yl)phenyl)isoxazol-5-ylamino) pyrazine-2-carbonitrile], in data set [1], the inhibition at 0.03 µM was found to be 33%, the inhibition at 0.3 µM was 31% and the IC50 was over 10 µM. Besides, the microsomal CLint at 1 μM in data set [2] worked out at 159 µL/min/mg. The microsomal CLint at 1 μM in data set [3] is 83 µL/min/mg. Besides, in data set [4], the microsomal CLint at 1 μM was 85 µL/min/mg. The same compound returned a solubility (kinetic) at 1 h in data set [7] of 100 µM (≈ 37.4 µg/mL).

With `COc1cc(C2=CCNCC2)ccc1-c1cc(Nc2cnc(C#N)cn2)no1` [Compound 1.19, 5-(5-(2-methoxy-4-(1,2,3,6-tetrahydropyridin-4-yl)phenyl)isoxazol-3-ylamino) pyrazine-2-carbonitrile], in data set [1], the inhibition at 0.03 µM turned out to be 15.1%. For the same compound, in data set [1], the inhibition at 0.3 µM is 50.5%. In addition, the microsomal CLint at 1 μM worked out at 183 µL/min/mg in data set [2], 239 µL/min/mg in data set [3] and 88 µL/min/mg in data set [4]. Further, the solubility (kinetic) at 1 h in data set [7] is 27.6 µM (≈ 10.3 µg/mL).

For the compound `COc1cc(C2=CCN(C)CC2)ccc1-c1cc(Nc2cnc(C#N)cn2)on1` [Compound 1.22, 5-(3-(2-methoxy-4-(1-methyl-1,2,3,6-tetrahydropyridin-4-yl)phenyl)isoxazol-5-ylamino) pyrazine-2-carbonitrile], the inhibition at 0.03 µM in data set [1] was determined as 13.7%. Further, the inhibition at 0.3 µM in data set [1] was 11%. Besides, the figures for the microsomal CLint at 1 μM in data set [2], in data set [3] and in data set [4] were 169 µL/min/mg, 313 µL/min/mg and 142 µL/min/mg, respectively. Besides, the solubility (kinetic) at 1 h in data set [7] worked out at 28.4 µM (≈ 11 µg/mL).

For `N#Cc1cnc(Nc2cc(-c3cc4ccccc4cc3OCCCN)[nH]n2)cn1` [Compound 2.7, 5-(5-(3-(3-aminopropoxy)naphthalen-2-yl)-1H-pyrazol-3-ylamino) pyrazine-2-carbonitrile], in data set [1], the inhibition at 0.03 µM stood at 95%, the inhibition at 0.3 µM came out at 100% and the half-maximal inhibitory concentration (IC50) was found to be 0.000933 µM. Also, the microsomal CLint at 1 μM in data set [2] stood at 6 µL/min/mg. The microsomal CLint at 1 μM in data set [3] turned out to be 118 µL/min/mg. For the same compound, the microsomal CLint at 1 μM in data set [4] is 44 µL/min/mg. The solubility (kinetic) at 1 h in data set [6] worked out at 21.3 µM (≈ 8.21 µg/mL).
